Measurements from US11013235B2 (priority 2015, dated 2021).
Read-outs that look alike come from different tables or passages of the source.

Experiments:
Format in all cases: in vivo
[1] = tested on: Candidatus 'Liberibacter asiaticus'; conditions: spraying every 15 days, 12 months after treatment, Citrus sinensis with HLB
Phytophthora parasitica = experiment: Control of Phytophthora parasitica disease in tobacco (Pp-Nt); conditions: 1 μM spraying every 24 hours for one week, water control 91
Experimental: (§1) In order to compare the effect of the compounds of formula I to V on the control of diseases in different plants, experiments were conducted in tobacco, tomato and Arabidopsis thaliana plants inoculated with Phytophthora parasitica, Rhizoctonia solani, Alternaria solani, Nocardia sp and Botrytis cinerea, respectively. The compounds were applied by spraying, at a concentration of 1 μM, every 24 hours for one week. The plant mortality rate was determined for the disease produced by Phytophthora parasitica, Rhizoctonia solani and Nocardia sp, while the percentage of leaves with symptoms was determined for the infection by Alternaria solani. In the case of plants affected by Botrytis cinerea, the lesion diameter was measured. […] Each treatment included fifty plants. As control, plants treated with water were studied. The plants of each treatment were previously inoculated with the indicated pathogens, according to different inoculation protocols (Frontiers in Plant Science 3: 268, 1-6, 2012), and later they were treated with the compounds.

Rhizoctonia solani [2] = experiment: Control of Rhizoctonia solani disease in tobacco (Rs-Nt); conditions: 1 μM spraying every 24 hours for one week, water control 87
Experimental: as §1

Nocardia sp = experiment: Control of Nocardia sp disease in tobacco (N-Nt); conditions: 1 μM spraying every 24 hours for one week, water control 58
Experimental: as §1

Rhizoctonia solani [3] = experiment: Control of Rhizoctonia solani disease in tomato (Rs-SI); conditions: 1 μM spraying every 24 hours for one week, water control 96
Experimental: as §1

Alternaria solani = experiment: Control of Alternaria solani disease in tomato (As-SI); conditions: 1 μM spraying every 24 hours for one week, water control 68
Experimental: as §1

Botrytis cinerea [4] = experiment: Control of Botrytis cinerea disease in Arabidopsis (Bc-At); conditions: 1 μM spraying every 24 hours for one week, water control 8.7
Experimental: as §1

Botrytis cinerea [5] = experiment: Control of Botrytis cinerea disease in tobacco (Bc-Nt); conditions: 1 μM spraying every 24 hours for one week, water control 6.7
Experimental: as §1

Botrytis cinerea [6] = experiment: Control of Botrytis cinerea disease in tomato (Bc-SI); conditions: 1 μM spraying every 24 hours for one week, water control 7.4
Experimental: as §1

Radopholus similis = experiment: Nematode control, nodules per plant: Radopholus similis; conditions: 1 μM foliar application every 5 days, evaluation 35 days after, control 45
Experimental: (§2) The solutions of the compounds were prepared in ethanol and diluted in water, up to a concentration of 1 μM for a foliar application. Applications were conducted every 5 days, spraying only the leafs with each compound. Ten plants were used for each treatment and the final evaluation was performed 35 days after, by quantifying the number of nodules per plant.

Meloidogyne incognita = experiment: Nematode control, nodules per plant: Meloidogyne incognita; conditions: 1 μM foliar application every 5 days, evaluation 35 days after, control 34
Experimental: as §2

Pratylenchus coffeae = experiment: Nematode control, nodules per plant: Pratylenchus coffeae; conditions: 1 μM foliar application every 5 days, evaluation 35 days after, control 42
Experimental: as §2

Structure (SMILES)	Titers of the bacterium ([1]; 0.001 μM) [copies per reaction]	Titers of the bacterium ([1]; 0.01 μM) [copies per reaction]	Titers of the bacterium ([1]; 1 μM) [copies per reaction]	Titers of the bacterium ([1]; 5 μM) [copies per reaction]	Titers of the bacterium ([1]; 10 μM) [copies per reaction]	Pp-Nt: percentage of mortality (Phytophthora parasitica) [%]	Rs-Nt: percentage of mortality (Rhizoctonia solani [2]) [%]	N-Nt: percentage of mortality (Nocardia sp) [%]	Rs-SI: percentage of mortality (Rhizoctonia solani [3]) [%]	As-SI: percentage of leaves with the disease symptoms (Alternaria solani) [%]	Bc-At: mean of the diameter of the lesion (Botrytis cinerea [4]) [mm]	Bc-Nt: mean of the diameter of the lesion (Botrytis cinerea [5]) [mm]	Bc-SI: mean of the diameter of the lesion (Botrytis cinerea [6]) [mm]	Rs: number of nodules per plant (Radopholus similis)	Mi: number of nodules per plant (Meloidogyne incognita)	Pc: number of nodules per plant (Pratylenchus coffeae)
O=C(Cc1cc2c(oc1=O)C=CC1C(c3ccc4ccccc4c3)=COC21)NCC(O)CO (centres unmarked) [IIE, N-(2,3-dihydroxypropyl)-2-[5-(naphthalen-2-yl)-11-oxo-3,10-dioxatricyclo[7.4.0.0^{2,6}]trideca-1(9),4,7,12-tetraen-12-yl]acetamide]	985	1	5	98	2547	0	0	0	0	7	1.2	0.3	0.8	0	0	0
O=C(Cc1cc2c(oc1=O)C=CC1C=COC21)NCC(O)CO (centres unmarked) [IIF, N-(2,3-dihydroxypropyl)-2-{11-oxo-3,10-dioxatricyclo[7.4.0.0^{2,6}]trideca-1(9),4,7,12-tetraen-12-yl}acetamide]	657	9	0	67	6547	0	0	0	1	5	1.1	2.0	1.6	0	0	0
O=C(Cc1cc2c(oc1=O)C=CC1C(n3cccc3)=COC21)NCC(O)CO (centres unmarked) [IIG, N-(2,3-dihydroxypropyl)-2-[11-oxo-5-(1H-pyrrol-1-yl)-3,10-dioxatricyclo[7.4.0.0^{2,6}]trideca-1(9),4,7,12-tetraen-12-yl]acetamide]	658	0	3	68	4587	3	0	0	1	7	0.5	0.9	0.8	3	0	0
CC1=COC2c3c(oc(=O)c(CC(=O)NCC(O)CO)c3C)C=CC12 (centres unmarked) [IIH, N-(2,3-dihydroxypropyl)-2-{5,13-dimethyl-11-oxo-3,10-dioxatricyclo[7.4.0.0^{2,6}]trideca-1(9),4,7,12-tetraen-12-yl}acetamide]	756	0	1	76	2365	1	2	1	3	1	1.5	1.5	2.5	16	2	18
Cc1c2c(oc(=O)c1CC(=O)NCC(O)CO)C=CC1C(c3ccccc3)=COC21 (centres unmarked) [III, N-(2,3-dihydroxypropyl)-2-{13-methyl-11-oxo-5-phenyl-3,10-dioxatricyclo[7.4.0.0^{2,6}]trideca-1(9),4,7,12-tetraen-12-yl}acetamide]	456	0	1	56	3654	2	3	1	2	2	2.4	1.5	0.8	2	3	1
CN1CCN(c2ncc(C(=O)N3CC4CC(O)C(O)CC4C3)cn2)CC1 (centres unmarked) [IIIA, 2-{[2-(4-methylpiperazin-1-yl)pyrimidin-5-yl]carbonyl}-octahydro-1H-isoindole-5,6-diol]	432	0	0	43	2365	1	2	1	3	1	2.4	1.5	0.8	11	2	16
Cc1nc(N2CCN(C)CC2)ncc1C(=O)N1CC2CC(O)C(O)CC2C1 (centres unmarked) [IIIB, 2-{[4-methyl-2-(4-methylpiperazin-1-yl)pyrimidin-5-yl]carbonyl}-octahydro-1H-isoindole-5,6-diol]	123	0	0	23	8546	2	3	1	2	2	0.7	0.9	1.2	2	3	16
O=C(c1cnc(N2CCN(c3ccccc3)CC2)nc1)N1CC2CC(O)C(O)CC2C1 (centres unmarked) [IIIC, 2-{[2-(4-phenylpiperazin-1-yl)pyrimidin-5-yl]carbonyl}-octahydro-1H-isoindole-5,6-diol]	587	0	0	87	3654	1	4	2	2	3	1.2	0.3	0.8	14	4	2
